Experimental data as given in paper PMC2909763 (Chemistry & biology, 2009).
Entries after “also recorded” stand apart in the source; their conditions may differ.

What was measured:
[1] = system: FXN mRNA in FRDA lymphoblasts; assay: FXN mRNA by qRT-PCR in FRDA lymphoblast cell line; type: cell-based, human
[2] = target: T1, HDAC7 (Homo sapiens, UniProt Q8WUI4); assay: IC50 with recombinant HDAC7; type: biochemical
T1 sequence (Q8WUI4 1-952): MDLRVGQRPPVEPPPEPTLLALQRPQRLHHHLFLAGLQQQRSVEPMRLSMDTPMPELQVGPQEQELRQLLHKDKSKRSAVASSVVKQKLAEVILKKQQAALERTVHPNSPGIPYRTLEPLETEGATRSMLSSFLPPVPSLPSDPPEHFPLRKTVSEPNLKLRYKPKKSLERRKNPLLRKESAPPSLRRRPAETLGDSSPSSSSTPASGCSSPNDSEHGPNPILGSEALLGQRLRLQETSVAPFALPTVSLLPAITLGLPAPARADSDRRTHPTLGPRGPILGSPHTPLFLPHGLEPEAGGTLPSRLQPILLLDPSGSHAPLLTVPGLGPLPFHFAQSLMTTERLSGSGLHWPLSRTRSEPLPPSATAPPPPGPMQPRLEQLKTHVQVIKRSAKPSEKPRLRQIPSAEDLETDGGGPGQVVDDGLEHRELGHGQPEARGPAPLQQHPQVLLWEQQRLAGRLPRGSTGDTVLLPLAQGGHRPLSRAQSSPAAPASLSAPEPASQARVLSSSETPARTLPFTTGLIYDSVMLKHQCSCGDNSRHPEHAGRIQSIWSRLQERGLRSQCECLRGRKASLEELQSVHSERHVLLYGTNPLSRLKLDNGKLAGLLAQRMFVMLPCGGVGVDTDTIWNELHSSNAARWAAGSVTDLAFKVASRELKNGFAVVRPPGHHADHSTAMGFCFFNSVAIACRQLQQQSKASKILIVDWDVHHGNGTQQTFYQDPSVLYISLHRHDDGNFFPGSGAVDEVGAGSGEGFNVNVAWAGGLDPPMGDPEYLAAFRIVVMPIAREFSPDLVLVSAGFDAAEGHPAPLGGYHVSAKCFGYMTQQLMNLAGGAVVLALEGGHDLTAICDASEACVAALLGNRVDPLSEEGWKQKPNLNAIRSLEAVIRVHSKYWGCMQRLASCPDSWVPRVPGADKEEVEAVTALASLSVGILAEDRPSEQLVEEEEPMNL

[3] = system: tubulin acetylation (class II HDAC6) in FRDA lymphoblasts; assay: Tubulin acetylation by western blot in FRDA lymphoblasts; type: cell-based, human
[4] = target: T2, HDAC1 (Homo sapiens, UniProt Q13547); assay: IC50 with recombinant HDAC1; type: biochemical
[5] = system: FXN mRNA in primary lymphocytes from FRDA patients; assay: FXN mRNA by qRT-PCR in primary FRDA patient lymphocytes; type: cell-based, human; conditions: for up-regulation of FXN mRNA: normalized to GAPDH mRNA, relative to DMSO
[6] = system: acetylated histone H3 in FRDA lymphoblast cell line; assay: Histone H3 acetylation by western blot in FRDA lymphoblasts; type: cell-based, human; conditions: for hyperacetylation of histone H3 after inhibitor removal: 3 or 106 at 10 μM, SAHA at 2 μM, 24 h, then washed, 0 to 7 h
[7] = system: class II HDACs; conditions: read-out: IC50s for class II enzymes; ref Chou et al., 2008; cited from earlier work
[8] = system: class I HDACs; conditions: ref Chou et al., 2008; cited from earlier work
[9] = system: frataxin protein in FRDA lymphoblasts; assay: Frataxin protein by western blot in FRDA lymphoblasts; type: cell-based, human; conditions: 106 or 3 at 10 μM, SAHA at 2 μM, 48 h, normalized to GAPDH
[10] = system: recombinant HDAC8; conditions: ref Chou et al., 2008; cited from earlier work
[11] = system: FXN mRNA in FRDA lymphoblasts; conditions: FRDA cells in culture; ref Herman et al., 2006; cited from earlier work
[12] = system: p21^WAF1 mRNA in HEK293 cells; assay: p21WAF1 mRNA levels in HEK293 cells; type: cell-based; conditions: data not shown
[13] = target: recombinant HDAC2 (Homo sapiens, UniProt Q92769); assay: Inhibition of recombinant HDAC2; type: biochemical; conditions: data not shown
[14] = target: HDAC3/NcoR2 (Homo sapiens, UniProt O15379); assay: Ki and kinetics from enzyme progression curves, HDAC3; type: biochemical; conditions: fit of Kobs versus inhibitor concentration
[15] = target: T2, HDAC1; assay: Ki and kinetics from enzyme progression curves, HDAC1; type: biochemical
[16] = system: HDAC; conditions: read-out: IC50 as HDAC inhibitor; ref Herman et al., 2006; cited from earlier work
[17] = system: Sirt2; conditions: read-out: IC50 Sirt2; reported; ref Napper et al., 2005; cited from earlier work
[18] = system: Sirt1; conditions: read-out: IC50 Sirt1; reported; ref Napper et al., 2005; cited from earlier work
[19] = system: FXN mRNA in patient fibroblasts; assay: FXN mRNA in FRDA patient fibroblasts; type: cell-based, human; conditions: concentrations up to 10 μM, not shown
[20] = recombinant HDAC1 vs HDAC3/NcoR2

T2 sequence (Q13547 whole entry): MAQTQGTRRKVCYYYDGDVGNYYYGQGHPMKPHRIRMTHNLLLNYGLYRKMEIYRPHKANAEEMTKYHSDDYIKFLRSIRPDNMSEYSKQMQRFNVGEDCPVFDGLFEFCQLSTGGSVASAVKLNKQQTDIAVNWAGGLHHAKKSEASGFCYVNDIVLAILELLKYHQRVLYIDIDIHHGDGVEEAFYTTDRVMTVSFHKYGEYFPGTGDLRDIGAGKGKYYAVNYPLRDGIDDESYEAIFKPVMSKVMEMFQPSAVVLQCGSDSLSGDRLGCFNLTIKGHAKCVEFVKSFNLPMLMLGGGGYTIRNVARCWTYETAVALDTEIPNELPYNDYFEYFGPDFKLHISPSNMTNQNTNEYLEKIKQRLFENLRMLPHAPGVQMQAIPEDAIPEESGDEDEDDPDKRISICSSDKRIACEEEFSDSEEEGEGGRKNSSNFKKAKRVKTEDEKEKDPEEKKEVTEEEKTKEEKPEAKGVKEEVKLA
HDAC3/NcoR2, sequence (O15379 whole entry): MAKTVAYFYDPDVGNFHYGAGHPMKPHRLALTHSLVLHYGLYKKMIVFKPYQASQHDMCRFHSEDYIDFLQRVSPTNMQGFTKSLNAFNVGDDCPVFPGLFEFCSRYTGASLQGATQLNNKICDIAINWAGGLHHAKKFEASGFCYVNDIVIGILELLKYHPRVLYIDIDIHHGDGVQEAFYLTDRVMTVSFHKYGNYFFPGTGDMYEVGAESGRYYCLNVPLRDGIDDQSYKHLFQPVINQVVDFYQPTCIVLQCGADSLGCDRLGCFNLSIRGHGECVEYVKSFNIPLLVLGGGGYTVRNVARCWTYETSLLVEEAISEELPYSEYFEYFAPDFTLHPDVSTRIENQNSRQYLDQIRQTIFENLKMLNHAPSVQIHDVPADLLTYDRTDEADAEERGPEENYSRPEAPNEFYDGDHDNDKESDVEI
HDAC3/NcoR2, sequence (Q9Y618 395-489 partner limits assumed): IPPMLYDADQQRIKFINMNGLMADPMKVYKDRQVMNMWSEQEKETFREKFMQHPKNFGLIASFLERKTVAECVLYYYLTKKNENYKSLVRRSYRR
recombinant HDAC2, sequence (Q92769 whole entry): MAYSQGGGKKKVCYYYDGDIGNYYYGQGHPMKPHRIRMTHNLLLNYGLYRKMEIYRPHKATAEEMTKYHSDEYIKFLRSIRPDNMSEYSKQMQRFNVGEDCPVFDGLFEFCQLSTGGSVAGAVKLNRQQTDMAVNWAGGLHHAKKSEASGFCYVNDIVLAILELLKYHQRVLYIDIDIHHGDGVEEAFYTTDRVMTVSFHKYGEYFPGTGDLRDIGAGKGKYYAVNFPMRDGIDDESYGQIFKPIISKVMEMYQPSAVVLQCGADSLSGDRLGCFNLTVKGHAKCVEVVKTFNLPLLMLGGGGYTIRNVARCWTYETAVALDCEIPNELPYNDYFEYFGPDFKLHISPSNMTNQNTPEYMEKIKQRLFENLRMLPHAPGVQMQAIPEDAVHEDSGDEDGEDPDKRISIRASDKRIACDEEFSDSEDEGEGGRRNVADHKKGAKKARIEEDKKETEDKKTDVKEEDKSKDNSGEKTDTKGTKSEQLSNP

In the case of CC(C)(C)OC(=O)Nc1ccc(NC(=O)CCCC(=O)C(F)(F)F)cc1 [compound 4, tert-butyl 4-(6,6,6-trifluoro-5-oxohexanamido)phenylcarbamate], the “effect on levels of FXN mRNA” value ([1]; concentrations up to 10 μM for 24 h) is reported as “no positive effect”, the IC50 [2] is reported as 4 µM and the “preference for a class II HDAC (HDAC7) over a class I HDAC (HDAC1)” value ([2]; from IC50 values) is reported as 7.5 fold. The tubulin acetylation ([3]; 1 μM in culture medium for 24 h) was “potent inducer”, the tubulin acetylation ([3]; FRDA lymphoblasts) was “highly active” and the IC50 [4] was 30 µM. For the same compound, the “up-regulation of FXN transcription” value ([5]; concentrations up to 40 μM) was “failed to show up-regulation”.

In the case of Cc1ccc(NC(=O)CCCCCC(=O)Nc2ccccc2N)cc1 [compound 106], the “hyperacetylation of histone H3 after inhibitor removal” value [6] is listed as “decreased only slightly”, the IC50 [7] is listed as greater than 180 µM and the “inhibition kinetics with class I HDACs” value [8] is listed as “slow-on/slow-off”. For the same compound, the “effect on frataxin protein levels” value [9] was “positive effect”, the tubulin acetylation ([3]; FRDA lymphoblasts) was “Neither 106 nor 3 caused tubulin acetylation” and the “activity against HDAC8” value [10] was “only weak inhibitory activity; also recorded: only weakly active”. The “up-regulation of FXN mRNA levels” value ([5]; 48 h) was “highly active” and the “up-regulation of FXN mRNA” value ([5]; 48 h) was 3 – 4 fold.

For CCCC(CCC)C(=O)O [valproic acid], the “activation of FXN gene expression” value [11] is given as “none”.

With Nc1ccc(-c2ccccc2)cc1NC(=O)CCCCCC(=O)Nc1ccccc1 [compound 3, N^1-(4-aminobiphenyl-3-yl)-N^7-phenylheptanediamide] the “p21^WAF1 mRNA levels” value [12] was “increased”, the “activity against recombinant HDAC2” value [13] was “similarly active” and the “hyperacetylation of histone H3 after inhibitor removal” value [6] was “decreased only slightly”. The “HDAC inhibition in FRDA cells (histone acetylation titration)” value ([6]; increasing concentrations, western blotting) was “comparably active”, the “inhibition mechanism, HDAC3/NcoR2” value [14] was “simple slow-on/slow-off mechanism” and the “effect on frataxin protein levels” value [9] was “without significant effect”. The tubulin acetylation ([3]; FRDA lymphoblasts) was “Neither 106 nor 3 caused tubulin acetylation”, the “preference for HDAC1 over HDAC3 comparing IC50 values” [4, 20] was ~ 75 fold and the “inhibition mechanism, HDAC1” value ([15]; fit of Kobs versus inhibitor concentration) was “slow-on/slow-off”. The “preference for HDAC1 over HDAC3 from Ki measurements” value [15, 20] was ~ 350 fold, the “up-regulation of FXN mRNA levels” value ([5]; 48 h) was “fails to reproducibly up-regulate” and the “up-regulation of FXN mRNA” value ([5]; 48 h) was no more than 1.7 fold.

For CC(/C=C/C(=O)NO)=C\[C@@H](C)C(=O)c1ccc(N(C)C)cc1 [TSA, trichostatin A, reference compound], the “inhibition kinetics with class I HDACs” value [8] is listed as “fast-on/fast-off” and the “activation of FXN gene expression” value [11] is listed as “neither TSA nor SAHA is an activator”.

For O=C(CCCCCC(=O)Nc1ccccc1)Nc1ccccc1 [5b, N^1-phenyl-N^7-phenylheptanediamide], the IC50 [16] is listed as roughly 200 µM and the “activation of FXN gene expression” value [11] is listed as “fails to activate”.

For NC(=O)C1CCCc2c1[nH]c1ccc(Cl)cc21 (stereo not shown) [6-chloro-2,3,4,9-tetrahydro-1H-carbazole-1-carboxamide], the “effect on FXN mRNA levels” value ([1]; concentrations up to 10 μM, not shown) is listed as “no effect”, the IC50 [17] is listed as […] and the IC50 [18] is listed as […]. For the same compound, the “effect on FXN mRNA levels” value [19] was “no effect” and the “effect on FXN mRNA levels” value ([5]; concentrations up to 10 μM, 48 h) was “no effect”.

In the case of O=C(CCCCCCC(=O)Nc1ccccc1)NO [SAHA, suberoylanilide hydroxamic acid, reference compound], the “p21^WAF1 mRNA levels” value [12] is given as “increased”, the “effect on frataxin protein levels” value [9] is given as “decreased” and the “activation of FXN gene expression” value [11] is given as “neither TSA nor SAHA is an activator”.
